Values after ≈ are worked out from the molar mass of the structure shown.
These compounds were tested on Mycobacterium tuberculosis (assay: Antitubercular activity against multi-drug resistant Mycobacterium tuberculosis 16833 assessed as reduction in bacterial growth incubated for 7 days by Alamar blue assay). Conditions: Mycobacterium tuberculosis, 16833, 168 h; time 7 day.
Format: functional

Compound | MIC
COc1ccc(-c2nnc(CNC(=O)c3ccc([N+](=O)[O-])o3)o2)cc1 | 3.58 µg/mL (≈ 10.4 µM)
CC(C)(C)c1ccc(-c2nnc(CNC(=O)c3ccc([N+](=O)[O-])o3)o2)cc1 | 1.85 µg/mL (≈ 5 µM)
CC(C)(C)c1ccc(-c2nnc(-c3ccc([N+](=O)[O-])o3)o2)cc1 | > 32 µg/mL
O=C(NCc1nnc(-c2ccc(OC(F)(F)F)cc2)o1)c1ccc([N+](=O)[O-])o1 | 1.96 µg/mL (≈ 4.91 µM)
O=C(Nc1nnc(-c2ccc(Br)cc2)o1)c1ccc([N+](=O)[O-])o1 | 1.44 µg/mL (≈ 3.8 µM)
O=C(NCc1nnc(-c2ccc(C(F)(F)F)cc2)o1)c1ccc([N+](=O)[O-])o1 | 1.93 µg/mL (≈ 5.04 µM)
NNC(=O)c1ccncc1 [ISONIAZID] | > 32 µg/mL
CO[C@H]1/C=C/O[C@@]2(C)Oc3c(C)c(O)c4c(O)c(c(/C=N/N5CCN(C)CC5)c(O)c4c3C2=O)NC(=O)/C(C)=C\C=C\[C@H](C)[C@H](O)[C@@H](C)[C@@H](O)[C@@H](C)[C@H](OC(C)=O)[C@@H]1C [RIFAMPIN] | > 32 µg/mL

— ChEMBL document CHEMBL5143540, “Design, synthesis and biological evaluation of nitrofuran-1,3,4-oxadiazole hybrids as new antitubercular agents” (Bioorg Med Chem, 2022)
